Values joined by “and” are separate entries in the source; they are usually repeats but may differ in a detail not shown here. Equal values may be shown once.
Tests used:
HCC827GR cells [1] = experiment: MTT assay, drug-resistant cell line; format: cell-based, human; details: Homo sapiens; MTT, gefitinib-resistant lung cancer cell line; read-out: IC50 HCC827GR
Procedure: (§3) The compounds were dissolved in DMSO to make a 50 mM stock solution and were diluted to the concentration of working solutions with the complete growth medium before administration.
(§4) Cells were seeded in 96-well plates with densities of 2,200–2,500 cells/well in 100 μL. One day after seeding, the concentration of the test compounds between 0 and 50 μM, 0.1% DMSO was added to cells as control. […] After 48 h, MTT was added and incubated in the plate for 1–4 h in the incubator.

KYSE450TR cells [2] = experiment: Flow cytometry detection for cell apoptosis (Annexin V/PI); format: cell-based, human; details: 48 h
Procedure: (§1) Cell apoptosis analysis was carried out by flow cytometry using the Annexin V/PI apoptosis methods. […] The cells were harvested and incubated with 250 μL of 1 × Annexin V binding buffer containing 5 μL of PI and 5 μL of FITC Annexin V (final concentration 1.8 μg/ml, Biolegend cat: 640945) for 15 min at room temperature in the dark. Then 200 µL of 1 × binding buffer was added for flow cytometry analysis (BD FACSCalibur™ Flow Cytometer).

KYSE450 cells [3] = experiment: as above; format: cell-based, human; details: 48 h
Procedure: as §1

[4] = molecular target: T1, EGFR mutant protein (672-1210, L858R) (Homo sapiens, UniProt P00533, L858R); experiment: Surface plasmon resonance (SPR) EGFR protein affinity; format: binding
T1 construct: the EGFR mutant type (672-1210, L858R, Active MOTIF, cat: 81200); purchased Active MOTIF 81200
Procedure: Surface plasmon resonance experiments were carried out to evaluate the interaction between 3d with the EGFR wild-type (0.468 μg/μL, Active MOTIF, cat: 31165) and the EGFR mutant type (672-1210, L858R, Active MOTIF, cat: 81200). The interaction of erlotinib with wild-type EGFR was also studied. Biacore T-200 (GE healthcare, Waukesha, WI, United States) equipment was used for the study. First, the EGFR wild-type (0.468 μg/μL, Active MOTIF, cat: 31165) and the EGFR mutant type (672-1210, L858R, Active MOTIF, cat: 81200) were covalently immobilized at densities of 2000 response units onto a CM5 sensor chip. Then, 3d dissolved in DMSO was injected at concentrations between 0.064 and 5,000 nM at 25°C. […] During the interaction, the changes in the refractive index were measured in real time to allow the plotting of the results of interaction as response units versus time. The interaction results were analyzed with BIA evaluation 3.0 software.

KYSE410TR cells = experiment: MTT assay, drug-resistant cell line; format: cell-based, human; details: Homo sapiens; MTT, paclitaxel-resistant esophageal cancer cell line; read-out: IC50 KYSE410TR
Procedure: as §3, §4

KYSE450TR cells [5] = experiment: Cell cycle analysis by flow cytometry; format: cell-based, human; details: 24 h
Procedure: (§5) KYSE450 and KYSE450TR cells were plated in 6-well plates with a density of 1 × 10^5 cells/well and cultured overnight to attach. […] After trypsinization treatment, the cells were collected by centrifugation. The cell pellet was re-suspended in 70% ethanol at −20°C for at least 3 h. […] Cells were re-transferred to the BD FACSCalibur™ Flow Cytometer. All analyses were performed with FlowJo software v105.3.6.

KYSE450 cells [6] = experiment: Cell cycle analysis by flow cytometry; format: cell-based, human; details: 24 h
Procedure: as §5

KYSE450TR cells [7] = experiment: MTT assay, drug-resistant cell line; format: cell-based, human; details: Homo sapiens; MTT, paclitaxel-resistant esophageal cancer cell line; read-out: IC50 KYSE450TR
Procedure: as §3, §4

[8] = tested on: human esophageal epithelial cell SHEE; experiment: MTT assay, toxicity against normal cells; format: cell-based; details: MTT, normal human esophageal epithelial cells, mean ± SD, read-out: IC50 SHEE
Procedure: Cells were seeded in 96-well plates with densities of 2,200–2,500 cells/well in 100 μL. One day after seeding, the concentration of the test compounds between 0 and 50 μM, 0.1% DMSO was added to cells as control. Approximately 2200-2500 transfected cells in 100 μL were incubated in quintuplicate in 96-well plates. After 48 h, MTT was added and incubated in the plate for 1–4 h in the incubator.

KYSE70 cells = experiment: MTT assay for cell proliferation and cytotoxicity; format: cell-based; details: Homo sapiens, KYSE-70; MTT, 48 h, mean ± SD; read-out: IC50 KYSE70
Procedure: as §3, §4

KYSE410 cells = experiment: MTT assay for cell proliferation and cytotoxicity; format: cell-based; details: Homo sapiens, KYSE-410; MTT, 48 h, mean ± SD; read-out: IC50 KYSE410
Procedure: as §3, §4

KYSE450 cells [9] = experiment: MTT assay for cell proliferation and cytotoxicity; format: cell-based; details: Homo sapiens, KYSE-450; MTT, 48 h, mean ± SD; read-out: IC50 KYSE450
Procedure: as §3, §4

HCC827 cells [10] = experiment: MTT assay for cell proliferation and cytotoxicity; format: cell-based; details: Homo sapiens, 48 h, mean ± SD
Procedure: as §3, §4

H1650TR cells = experiment: MTT assay, drug-resistant cell line; format: cell-based, human; details: Homo sapiens; MTT, paclitaxel-resistant lung cancer cell line; read-out: IC50 H1650TR
Procedure: as §3, §4

[11] = molecular target: T2, EGFR wild-type protein (H672-E410) (Homo sapiens, UniProt P00533); experiment: Surface plasmon resonance (SPR) EGFR protein affinity; format: binding; details: immobilized wild-type EGFR
T2 construct: purchased Active MOTIF 31165
Procedure: Biacore T-200 (GE healthcare, Waukesha, WI, United States) equipment was used for the study. […] During the interaction, the changes in the refractive index were measured in real time to allow the plotting of the results of interaction as response units versus time. The interaction results were analyzed with BIA evaluation 3.0 software.

KYSE70TR cells = experiment: MTT assay, drug-resistant cell line; format: cell-based, human; details: Homo sapiens; MTT, paclitaxel-resistant esophageal cancer cell line; read-out: IC50 KYSE70TR
Procedure: as §3, §4

[12] = tested on: KYSE450 cells (caspase-3, cytochrome-c, PARP); experiment: Western blot of apoptosis-related marker proteins; format: cell-based, human; details: KYSE450, 4 μM, 6, 12 and 24 h vs control at 0 h
Procedure: KYSE450 cells (3 × 10^5/well) were incubated overnight in 10 square petri dishes and then treated with compound 3d at 4 μM for 0, 6, 12, and 24 h. Cells treated with 0.1% DMSO were used as control. Then, the cells were harvested, and total proteins were extracted. […] The membrane was blocked for 1 h, then incubated overnight with a 1:1000 dilution of anti-caspase-3, anti-cytochrome-c, and anti-PARP, or 1 : 3,000 dilution of anti-β-action primary antibody at 4°C. Finally, 1 : 3,000 anti-rabbit secondary antibodies were incubated for 2 h at room temperature. Protein bands were developed by chemiluminescence.

KYSE450TR cells [13] = experiment: Plate clone formation assay; format: cell-based, human; details: KYSE450TR, 2.5, 5 and 10 µM, 10 days
Procedure: (§2) Cells were seeded in 6-well plates with a density of 200 cells/well and cultured overnight for attachment. […] Medium with or without compounds was changed every 48 h. When colony formation was visible, the medium was discharged. Then, the colonies were washed with cold PBS, fixed with 4% paraformaldehyde (PFA) for at least 30 min, and then stained with 0.2% crystal violet solution in 100% ethanol for 20 min.

KYSE450 cells [14] = experiment: Plate clone formation assay; format: cell-based, human; details: KYSE450, 2.5, 5 and 10 µM, 10 days
Procedure: as §2

HCC827 cells [15] = experiment: Plate clone formation assay; format: cell-based, human; details: HCC827, 2.5, 5 and 10 µM, 10 days
Procedure: as §2

HCC827GR cells [16] = experiment: Plate clone formation assay; format: cell-based, human; details: HCC827GR, 2.5, 5 and 10 µM, 10 days
Procedure: as §2

H1650 cells = experiment: MTT assay for cell proliferation and cytotoxicity; format: cell-based; details: Homo sapiens, NCI-H1650; MTT, 48 h, mean ± SD; read-out: IC50 H1650
Procedure: as §3, §4

## COCCOc1cc2ncnc(Nc3cccc(-c4cn(Cc5cc(Br)cc(Br)c5)nn4)c3)c2cc1OCCOC [Compound 3d, [6,7-Bis-(2-Methoxy-Ethoxy)-Quinazolin-4-yl]-{3-[1-(3,5-Dibromo-Benzyl)-1H-(1,2,3)Triazol-4-yl]-Phenyl}-Amine]
HCC827GR cells [1]
  IC50: 2.38 ± 0.17 µM
KYSE450TR cells [2]; 5 μM
  proportion of apoptotic cells: 44.12%
KYSE450TR cells [2]; 10 μM
  proportion of apoptotic cells: 48.77%
KYSE450 cells [3]; KYSE450, 5 μM
  proportion of apoptotic cells: 24.50%
KYSE450 cells [3]; KYSE450, 10 μM
  proportion of apoptotic cells: 69.64%
[4]; immobilized mutant EGFR (L858R), 25°C
  Kd: 3.12 µM and 3.13 µM
[4]; immobilized mutant EGFR (mEGFR)
  Rmax: 21.16 RU
KYSE410TR cells
  IC50: 7.91 ± 0.61 µM
KYSE450TR cells [5]; 3.5 μM
  ratio of cells in G0/G1 phase: 34.92%
  ratio of cells in G2/M phase: 22.86%
  ratio of cells in S phase: 42.22%
KYSE450TR cells [5]; 7 μM
  ratio of cells in G0/G1 phase: 37.56%
  ratio of cells in G2/M phase: 23.94%
  ratio of cells in S phase: 38.50%
KYSE450TR cells [5]; 14 μM
  ratio of cells in G0/G1 phase: 43.34%
  ratio of cells in G2/M phase: 23.39%
  ratio of cells in S phase: 33.27%
KYSE450TR cells [5]; 28 μM
  ratio of cells in G0/G1 phase: 41.19%
  ratio of cells in G2/M phase: 27.28%
  ratio of cells in S phase: 31.53%
KYSE450TR cells [5]; 3.5-28 μM
  cell cycle phase in which cells are arrested: G2/M phase
KYSE450 cells [6]; KYSE450, 3.5 μM
  ratio of cells in G0/G1 phase: 57.83%
  ratio of cells in G2/M phase: 16.5%
  ratio of cells in S phase: 25.67%
KYSE450 cells [6]; KYSE450, 7 μM
  ratio of cells in G0/G1 phase: 56.56%
  ratio of cells in G2/M phase: 18.74%
  ratio of cells in S phase: 24.7%
KYSE450 cells [6]; KYSE450, 14 μM
  ratio of cells in G0/G1 phase: 60.37%
  ratio of cells in G2/M phase: 15.47%
  ratio of cells in S phase: 24.16%
KYSE450 cells [6]; KYSE450, 28 μM
  ratio of cells in G0/G1 phase: 55.21%
  ratio of cells in G2/M phase: 20.66%
  ratio of cells in S phase: 24.13%
KYSE450 cells [6]; KYSE450, 3.5-28 μM
  cell cycle phase in which cells are arrested: G0/G1 phase
KYSE450TR cells [7]
  IC50: 10 ± 0.75 µM
[8]
  IC50: > 50 µM
KYSE70 cells
  IC50: 5.43 ± 0.21 µM
KYSE410 cells
  IC50: 6.91 ± 0.4 µM
KYSE450 cells [9]
  IC50: 4.23 ± 0.19 µM
HCC827 cells [10]
  IC50: 8.17 ± 0.42 µM
H1650TR cells
  IC50: 5.76 ± 0.33 µM
[11]
  Rmax: 12.9 RU
[11]; 25°C
  Kd: 6.88 µM and 6.89 µM
KYSE70TR cells
  IC50: 7.17 ± 0.73 µM
[12]
  caspase-3 protein level: higher than those in the control at 0 h
  cleaved PARP protein level: higher than those of the control at 0 h
  cytochrome-c protein level: higher than those in the control at 0 h
KYSE450TR cells [13]
  inhibition effect on colony formation: more significant than that of erlotinib
KYSE450 cells [14]
  inhibition effect on colony formation: more significant than that of erlotinib
HCC827 cells [15]
  inhibition effect on colony formation: more significant than that of erlotinib
HCC827GR cells [16]
  inhibition effect on colony formation: more significant than that of erlotinib
H1650 cells
  IC50: 2.99 ± 0.13 µM
